Measured values from a melting point compilation (Tetko et al.; mined from patent text by program, amines drawn as free bases though some values may be those of a salt).

Compound | melting point
CC(C)CCc1c(C(C)C)nc(C(C)C)c(CO)c1-c1ccc(F)cc1 | 43 to 45 °C
CC(C)NC(=O)C(C)CN(C)C (configuration not stated) | 67 to 69 °C
COc1cc(-c2cc(C(F)(F)F)nn2-c2ccc(S(C)(=O)=O)c(F)c2)ccc1-c1cscn1 | 155 to 157 °C
c1ccc(N=C2SCS2)nc1 | 98.7 to 99.7 °C
CC/C(=C\c1cccc(OCc2nc(-c3ccc(C(F)(F)F)cc3)oc2C)c1)Cn1oc(=O)[nH]c1=O | 124 to 125 °C
Cc1c(C)c2c(c(C)c1N)CC(C)(CN1CCN(CCc3ccccc3)CC1)O2 (configuration not stated) | 99 to 100 °C
CC(=O)OC1CSC(Oc2ccc(-c3ccnc(Cl)c3)nc2)C(OC(C)=O)C1OC(C)=O (configuration not stated) | 226 °C
CCCc1nn(-c2ccc(C(F)(F)F)cn2)cc1CCCOc1cccc(C(C)(C)C(=O)O)c1 | 82 to 83 °C
CNC(=O)c1cc(F)cc(Cl)c1Oc1cccc(OC)c1C | 127 to 128 °C
CCOC(=O)c1cn(-c2cc(N(C)C)c(F)cc2F)c2nc(Cl)c(F)cc2c1=O | 158 to 163 °C
COc1ccc(-c2ccc(-c3ccc(C(F)(F)F)cc3)nc2-c2ccc(OC)cc2)cc1 | 144 to 147 °C
C#CCn1cc(Cc2ccc(C(=O)OC)cc2OC)c2cc(NC(=O)CC3CCCC3)ccc21 | 160 to 161 °C
CC(C)Cc1csc(NC(=O)OC(C)(C)C)c1C(=O)O | 154 to 155 °C
CCCCCCCCCCCCCCOC(=O)CCC(=O)CCC(=O)OCC | 43 °C
O=C(NCc1ccccc1)c1cc2c(-c3ccccc3)n[nH]c2s1 | 98 to 101 °C
Fc1ccc(OCCN2CCC(CNc3nc4ccccc4s3)CC2)cc1 | 117 °C
O=C(On1nnc2ccccc21)c1ccccc1 | 75 to 78.5 °C
COC(=O)c1ccccc1OCc1ccc(COc2ccccc2C(=O)OC)cc1 | 115 to 120 °C
CCCC#Cc1cc(Cl)cc2c1OC(C(F)(F)F)C(C(=O)O)=C2 (configuration not stated) | 168 to 171 °C
COc1ccc(C2c3ccccc3C(c3ccccc3)C2C(=O)O)cc1 (configuration not stated) | 164 to 166 °C
CSCCC1=NS(=O)(=O)NC(N)=N1 | 243 to 246 °C
Cc1cc(C#N)cc(C(=O)Nc2cccc(C(F)(F)F)c2)n1 | 167 °C
Cn1cc(C2CCC3(CC2)OCCO3)c2cc(C#N)ccc21 | 170 to 172 °C
CCn1cc(C(=O)C(=O)O)c2ccc(-c3ccc(OC(F)(F)F)cc3)cc21 | 204 to 205 °C

Compound | melting point
CCCC1=NN(c2ccc(C(=O)O)cc2)C(=O)C1=CNc1ccccc1CC | 254 °C
CCOC(=O)c1cn(CC)c2nc(OC)ncc2c1=O | 149 °C
CCCc1c(O)ccc2c(=O)cc(-c3ccc(C(=O)OCC)cc3)oc12 | 225 to 226 °C
O=S(=O)(CC(F)(F)F)c1nc2ccccc2[nH]1 | 172 to 174 °C
O=C(O)Cn1c(Cc2ccccc2)ccc(NC(=O)CCCc2ccccc2)c1=O | 159 to 161 °C
Cn1ncc(C(=O)O)c1OCc1ccccc1 | 117 to 122 °C
O=c1[nH]c(=S)[nH]cc1CCCc1ccccc1 | 180 to 182 °C
COC(C)(C)c1cccc(Cn2nnc3c(-c4ccc(C)o4)nc(N)nc32)n1 | 178 °C
Nc1cc(C2=NOC(c3cc(Cl)cc(Cl)c3)(C(F)(F)F)C2)ccc1C(=O)NCC(F)(F)F (configuration not stated) | 78 to 79 °C
CNCCCOc1ccc(-c2ccc(C(=O)O)cc2)cc1-c1ccc2c(c1)C(C)(C)CCC2(C)C | 242 °C
O=c1c2cnc3ccccc3c2on1-c1ccccc1 | 163 °C
Cc1cc2nc(N)[nH]c(=O)c2[nH]1 | 252 to 254 °C
O=C1CCCC(=O)C1Cc1ccccc1CCCCl | 143 to 145 °C
O=c1cc(CO)oc2ccccc12 | 165 to 167 °C
CCc1cc2c(cc1CCSCC(N)=O)OCO2 | 98 to 99 °C
NCc1cccc(Cn2ccc(OCc3ccc(F)cc3F)c(Br)c2=O)c1F | 160 to 163 °C
COc1cc([N+](=O)[O-])c2nccc(C)c2c1Cl | 167 to 169 °C
CC(C)(C)OC(=O)NNC(=O)C=Cc1cc(=O)c(OCc2ccccc2)c[nH]1 | 141 °C
O=c1ccoc(C(O)c2cccnc2)c1O (configuration not stated) | 176 to 180 °C
CC(C)(C)NCc1cc(Br)cc(Br)c1O | 173 to 175 °C
CN(C)c1cc2nc(C(C)(C)C)sc2cc1[N+](=O)[O-] | 65 to 68 °C
CN(c1cccc2cc(C3=NCC(CC(N)=O)S3)[nH]c12)S(=O)(=O)c1ccccn1 (configuration not stated) | 149 to 150 °C
C=C(C)C(=O)OCCCCCCOc1ccc(C=Cc2ccc([N+](=O)[O-])cc2)cc1 | 90 to 95 °C
Cc1ccc(C(=O)N2CCN(CCc3ccc(Cl)cc3)CC2)cc1 | 105 to 106 °C

Continued, values first:

melting point | Compound
107 °C | COc1ccc(C(=C2CCCCC2)c2ccc(OC)c(OC)c2)cc1OC
218 to 220 °C | CC(C)Cn1cnc2c(N)nc3cc(Br)ccc3c21
95 to 96 °C | COc1cc(COc2cc(Cn3cncn3)n(-c3ccccc3)n2)ccc1OCc1nc(-c2ccco2)oc1C
274 to 276 °C | C=C1SC(=O)N(c2ccc3cc(-c4ccc(OC)c(C(C)(C)C)c4)ccc3c2)C1=O
240 °C | Cc1ccc(C=CC(=O)N2CCc3c([nH]c4ccccc34)C2c2ccc3c(c2)OCO3)cc1 (configuration not stated)
106 to 107 °C | CN(CCN1C(=O)c2ccccc2C(C)(C)C1=O)CCN1C(=O)c2ccccc2C(C)(C)C1=O
67 to 69 °C | CCOC(=O)c1oc2cccc(C(C)OC)c2c1C (configuration not stated)
121 to 123 °C | CC(C)(C)OC(=O)NCc1cccc(C=CC(=O)O)c1
188 to 192 °C | O=C(O)CC1(c2ccc(Cl)cc2Cl)CNC(=O)C1 (configuration not stated)
120 to 121 °C | O=c1cc(-c2cccc(Cl)c2)oc2ccc(OCCCCCCN3CCC(O)CC3)cc12
156 to 159 °C | Cn1c(-c2ccc(-c3ccccn3)cc2)c(C(=O)N2CCC(OCC(=O)O)CC2)c(=O)n1-c1ccc(C#N)cc1
168 to 170 °C | O=C(Nc1ccc(F)c(F)c1)C12CC3CC(CC(C3)C1)C2
140 to 142 °C | Cc1cccc(Nc2cc(Cl)nc(S(C)(=O)=O)n2)c1C
155 to 157 °C | CC1CCCN1C1CCN(c2ccc(CC(=O)NC3CCOCC3)cc2)C1 (configuration not stated)
208 to 209 °C | O=C(NCc1cccc(-c2nc(=O)c3ccccc3s2)n1)c1cccs1
204 to 205 °C | CCOCc1nc2c(N)nc3ccccc3c2n1CC1CC(C)=NO1 (configuration not stated)
200 to 202 °C | O[C@H]1CC[C@H](Nc2nccc(-n3ncc4c(Br)cccc43)n2)CC1
177 to 179 °C | CC(C)C(=O)N[C@H]1CCc2c(c3cc(Br)ccc3n2Cc2ccccc2)C1
167 to 169 °C | COc1ccc(C(=O)Nc2ccccc2)cc1NCc1ccccc1C
115 °C | CNC(=O)Sc1ncc(Cl)cn1
85 to 87 °C | N=C(OCC1CC1)N1CCC(c2nsc3ccccc23)CC1
58 °C | COCC1CN(c2ccc(OCCC(C)O)cc2)C(=O)O1 (configuration not stated)
209 °C | CCOC(=O)c1nnc(-c2cc3sc(C)c(N(C)S(=O)(=O)c4cccs4)c3[nH]2)s1
150 to 154 °C | CC(C)c1ccc(S(=O)(=O)n2c(CCC(=O)O)cc3cc(Cl)ccc32)cc1
